This is an account of results in ChEMBL document CHEMBL4725408, “Antibacterial Spiropyrimidinetriones with N-Linked Azole Substituents on a Benzisoxazole Scaffold Targeting DNA Gyrase” (J Med Chem, 2020).

A short description of series [1]: Inhibition of recombinant Escherichia coli DNA gyrase AB expressed in Escherichia coli BL21 (DE3) using relaxed pJT519 DNA as substrate preincubated for 20 mins followed by 5'-BODIPY-TMR-TTCTTCTTCT addition and measured after 1 hr by fluorescence anisotropy. (Polarisation of emitted light reports the rotation of a fluorescent probe.)
Series [2] can be described thus: n-octanol/phosphate buffer partition coefficient, log D of the compound at pH 7.4 measured after 1 hr by UV-LC/MS based shake flask method. It is filed as physicochemical.
Series [3] in a line: Solubility of the compound by high throughput solubility assay. It is filed as physicochemical.
Series [4] in a line: Protein binding in human plasma assessed as unbound fraction at 10 uM measured after 16 hrs by LC-MS/MS based equilibrium dialysis method. It is filed as ADME, cell-free. For orientation: Equilibrium dialysis compares concentrations on both sides of a semipermeable membrane.
The test system of series [5] is Staphylococcus aureus. The experiment in a line: Antibacterial activity against methicillin sensitive Staphylococcus aureus ARC516 by broth microdilution method. Type of series: functional. Background: Dilution methods test growth across graded concentrations, often in twofold steps.
Series [6] deals with Staphylococcus aureus. The experiment in a line: Antibacterial activity against methicillin sensitive Staphylococcus aureus ARC516 in presence of human serum by broth microdilution method. Type of series: functional.
The subject of series [7] is Staphylococcus aureus. As to the kind of experiment: Antibacterial activity against methicillin/quinolone-resistant Staphylococcus aureus ARC517 by broth microdilution method. Type of series: functional.
In series [8] the test system is Escherichia coli. As to the kind of experiment: Antibacterial activity against Escherichia coli ARC523 by broth microdilution method. Type of series: functional.
In series [9] the test system is Streptococcus pneumoniae. As to the kind of experiment: Antibacterial activity against Streptococcus pneumoniae ARC548 by broth microdilution method. Type of series: functional.
Series [10] relates to Streptococcus pyogenes. As to the kind of experiment: Antibacterial activity against Streptococcus pyogenes ARC838 by broth microdilution method. Type of series: functional.
Series [11] relates to Haemophilus influenzae. The experiment in a line: Antibacterial activity against Haemophilus influenzae ARC737 by broth microdilution method. It is filed as functional.
Series [12] has as its system L5178Y. The experiment in a line: Genotoxicity in mouse L5178Y cells using DAPI staining by microscopy based micronucleation assay. Type of series: toxicity, cell-based.

Converted amounts (≈) assume the structure as drawn.

One may read the IC50 as the concentration needed to halve the response being measured. Broadly, the logD is the decadic logarithm of the distribution of all forms, ionised or not, between an organic phase and buffer at a given pH. Read a low logD as lower lipophilicity. The solubility is how much of the substance goes into solution per volume. A higher solubility goes with much dissolved substance. In general, fraction unbound refers to free concentration divided by total concentration. For the compound `C[C@H](O)CNc1ncnn1-c1noc2c(F)c3c(cc12)CC1(C(=O)NC(=O)NC1=O)[C@H]1[C@H](C)O[C@H](C)CN31`, the IC50 in series [1] turned out to be 260 nM. In series [2], this compound came in with a logD at 1 h of 1.9. The solubility in [3] came to 200 µM (≈ 106 µg/mL). For the same compound, in [4], the fraction unbound at 16 h, 10 µM is 0.12. For the same compound, the MIC in [5] was less than 0.2 µM; in [6], less than 0.2 µM; in [7] it was 0.63 µM (≈ 0.333 µg/mL); in series [8], 25 µM (≈ 13.2 µg/mL); in series [9], 0.19 µM (≈ 0.1 µg/mL); in [10] it was 0.19 µM (≈ 0.1 µg/mL). The same compound gave an MIC in [11] of 0.39 µM (≈ 0.206 µg/mL).

As for `C[C@@H]1CN2c3c(cc4c(-n5ncnc5NCCN5CCOCC5)noc4c3F)CC3(C(=O)NC(=O)NC3=O)[C@H]2[C@H](C)O1`, in [1], the IC50 came to 310 nM. The logD at 1 h in series [2] was 2.1. This compound also yielded a solubility in series [3] of 150 µM (≈ 87.5 µg/mL). Moreover, the fraction unbound at 16 h, 10 µM in series [4] came out at 0.11. Moreover, the MIC was less than 0.2 µM in series [5]; 0.78 µM in [6]; 3.5 µM (≈ 2.04 µg/mL) in series [7]; 100 µM (≈ 58.4 µg/mL) in [8]; 0.39 µM (≈ 0.228 µg/mL) in series [9]; 0.39 µM (≈ 0.228 µg/mL) in series [10]. The MIC in [11] was found to be 1.6 µM (≈ 0.934 µg/mL).

The NOAEL is the highest dose or exposure tested at which no adverse effect was seen. Turning to `CO/N=C1\CN(c2nc3c(cc2F)c(=O)c(C(=O)O)cn3C2CC2)CC1CN` (centres undefined) [GEMIFLOXACIN], the NOAEL in series [12] was 3 µM.

On to `C[C@@H]1CN2c3c(cc4c(-n5ncnc5N5CCOCC5)noc4c3F)CC3(C(=O)NC(=O)NC3=O)[C@H]2[C@H](C)O1`, for which the IC50 in series [1] came to 660 nM. For the same compound, the logD at 1 h in [2] stood at 1.6. This compound showed a solubility in series [3] greater than 1000 µM. Further, the fraction unbound at 16 h, 10 µM in series [4] is 0.17. In addition, the MIC in series [5] amounted to 0.39 µM (≈ 0.211 µg/mL); in series [6] it was 0.78 µM; in series [7], 0.98 µM (≈ 0.53 µg/mL); in series [8], 200 µM (≈ 108 µg/mL); in [9], 1.6 µM (≈ 0.865 µg/mL); in [10], 0.78 µM (≈ 0.422 µg/mL). The compound also yielded an MIC in series [11] of 1.6 µM (≈ 0.865 µg/mL).

`COCCOc1ncnn1-c1noc2c(F)c3c(cc12)CC1(C(=O)NC(=O)NC1=O)[C@H]1[C@H](C)O[C@H](C)CN31`: the IC50 in [1] is 320 nM. In addition, in [2], the logD at 1 h was determined as 1.7. This compound came in with a solubility in series [3] of 640 µM (≈ 339 µg/mL). In addition, the fraction unbound at 16 h, 10 µM in [4] is 0.12. In addition, the MIC in series [5] is 0.39 µM (≈ 0.206 µg/mL); in series [6], 1.6 µM; in [7] it was 1.6 µM (≈ 0.847 µg/mL); in series [8], 100 µM (≈ 52.9 µg/mL); in series [9] it was less than 0.2 µM; in series [10], less than 0.2 µM. Also, the MIC in series [11] is 0.39 µM (≈ 0.206 µg/mL).

As for `C[C@@H]1CN2c3c(cc4c(-n5ncnc5C#N)noc4c3F)CC3(C(=O)NC(=O)NC3=O)[C@H]2[C@H](C)O1`, the IC50 in [1] turned out to be 320 nM. The logD at 1 h in series [2] was 2. In [3], this compound showed a solubility of 560 µM (≈ 269 µg/mL). Besides, in series [4], the fraction unbound at 16 h, 10 µM was 0.076. Further, the MIC was less than 0.2 µM in series [5]; 0.39 µM in series [6]; less than 0.2 µM in [7]; 6.2 µM (≈ 2.98 µg/mL) in [8]; 0.39 µM (≈ 0.187 µg/mL) in series [9]; 0.39 µM (≈ 0.187 µg/mL) in series [10]. This compound registered an MIC in series [11] of 0.39 µM (≈ 0.187 µg/mL).

With `C[C@@H]1CN2c3c(cc4c(-n5ncnc5N)noc4c3F)CC3(C(=O)NC(=O)NC3=O)[C@H]2[C@H](C)O1`, in series [1], the IC50 was 75 nM. Also, the logD at 1 h in series [2] was 1.9. The same compound registered a solubility in [3] of 460 µM (≈ 216 µg/mL). In addition, in series [4], the fraction unbound at 16 h, 10 µM came to 0.11. The MIC is 0.049 µM (≈ 0.0231 µg/mL) in series [5]; less than 0.2 µM in [6]; less than 0.2 µM in series [7]; 12 µM (≈ 5.65 µg/mL) in series [8]; 0.098 µM (≈ 0.0461 µg/mL) in series [9]; 0.098 µM (≈ 0.0461 µg/mL) in series [10]. Besides, the MIC in series [11] was 0.39 µM (≈ 0.183 µg/mL). The same compound registered an NOAEL in [12] of 6 µM.

As to `C[C@@H]1CN2c3c(cc4c(-n5ncnc5NCCO)noc4c3F)CC3(C(=O)NC(=O)NC3=O)[C@H]2[C@H](C)O1`, the IC50 in series [1] was 270 nM. The same compound returned a logD at 1 h in series [2] of 1.6. This compound yielded a solubility in [3] of 625 µM (≈ 322 µg/mL). The fraction unbound at 16 h, 10 µM in series [4] is 0.14. In addition, the MIC is 0.39 µM (≈ 0.201 µg/mL) in [5]; less than 0.2 µM in series [6]; 0.78 µM (≈ 0.401 µg/mL) in series [7]; 25 µM (≈ 12.9 µg/mL) in [8]; 0.39 µM (≈ 0.201 µg/mL) in [9]; 0.39 µM (≈ 0.201 µg/mL) in series [10]. The compound also yielded an MIC in series [11] of 0.39 µM (≈ 0.201 µg/mL).
